Source: ChEMBL document CHEMBL4813985, “Lead optimization generates selenium-containing miconazole CYP51 inhibitors with improved pharmacological profile for the treatment of fungal infections” (Eur J Med Chem, 2021)
In brackets after ≈: the same amount, converted by molar mass.

How the values were obtained:
Candida albicans [1] = test: Antifungal activity against fluconazole-resistant Candida albicans 901 assessed as inhibition of microbial growth after 24 hrs by broth microdilution method; format: functional
Candida albicans [2] = test: Antifungal activity against Candida albicans ATCC SC5314 measured after 24 hrs by broth microdilution assay; format: functional
Candida parapsilosis = test: Antifungal activity against Candida parapsilosis ATCC 22019 measured after 24 hrs by broth microdilution assay; format: functional; settings: Lodderomyces parapsilosis
Candida albicans [3] = test: Potency index, ratio of fluconazole MIC to test compound MIC for Candida albicans CPCC400616 measured after 24 hrs by broth microdilution assay; format: functional
Candida albicans [4] = test: Antifungal activity against fluconazole-resistant Candida albicans 904 assessed as inhibition of microbial growth after 24 hrs by broth microdilution method; format: functional
Aspergillus fumigatus = test: Antifungal activity against Aspergillus fumigatus CMGCC3.7795 measured after 72 hrs by broth microdilution assay; format: functional
Candida albicans [5] = test: Antifungal activity against fluconazole-resistant Candida albicans CaR assessed as inhibition of microbial growth after 24 hrs by broth microdilution method; format: functional
Candida albicans [6] = test: Antifungal activity against fluconazole-resistant Candida albicans 17# assessed as inhibition of microbial growth after 24 hrs by broth microdilution method; format: functional
Nakaseomyces glabratus = test: Antifungal activity against Candida glabrata measured after 24 hrs by broth microdilution assay; format: functional
Pichia kudriavzevii = test: Antifungal activity against Candida krusei AS2.1045 measured after 24 hrs by broth microdilution assay; format: functional
[Candida] zeylanoides = Antifungal activity against Candida zeylanoides CMGCC2.3739 measured after 24 hrs by broth microdilution assay; format: functional; settings: Dujonia zeylanoides
Candida albicans [7] = test: Antifungal activity against Candida albicans CPCC400616 measured after 24 hrs by broth microdilution assay; format: functional
Cryptococcus neoformans = test: Antifungal activity against Cryptococcus neoformans CMGCC2.3161 measured after 72 hrs by broth microdilution assay; format: functional
Candida albicans [8] = test: Antifungal activity against fluconazole-resistant Candida albicans 632 assessed as inhibition of microbial growth after 24 hrs by broth microdilution method; format: functional
MCF-10A = test: Cytotoxicity against human MCF-10A cells assessed as reduction in cell viability incubated for 96 hrs by MTT assay; format: cell-based
PC-3 = test: Cytotoxicity against human PC3 cells assessed as reduction in cell viability incubated for 96 hrs by MTT assay; format: cell-based; settings: PC-3, 96 h
HL-60 = test: Cytotoxicity against human HL-60 cells assessed as reduction in cell viability incubated for 96 hrs by MTT assay; format: cell-based; settings: HL-60, 96 h
MDA-MB-231 = test: Cytotoxicity against human MDA-MB-231 cells assessed as reduction in cell viability incubated for 96 hrs by MTT assay; settings: MDA-MB-231, 96 h

| SMILES | MIC (Candida albicans [1]) | MIC (Candida albicans [2]) | MIC (Candida parapsilosis) | Ratio (Candida albicans [3]) | MIC (Candida albicans [4]) | MIC (Aspergillus fumigatus) | MIC (Candida albicans [5]) | MIC (Candida albicans [6]) | MIC (Nakaseomyces glabratus) | MIC (Pichia kudriavzevii) | MIC ([Candida] zeylanoides) | MIC (Candida albicans [7]) | MIC (Cryptococcus neoformans) | MIC (Candida albicans [8]) | IC50 (MCF-10A) | IC50 (PC-3) | IC50 (HL-60) | IC50 (MDA-MB-231) | IC50 (PC-3; read-out: IC50) |
| --- | --- | --- | --- | --- | --- | --- | --- | --- | --- | --- | --- | --- | --- | --- | --- | --- | --- | --- | --- |
| COc1cccc([Se]C(Cn2ccnc2)c2ccc(F)cc2F)c1 (configuration not stated) | 4 µg/mL | 0.13 µg/mL (≈ 0.331 µM) | 0.25 µg/mL (≈ 0.636 µM) | 8 | 8 µg/mL | 4 µg/mL (≈ 10.2 µM) | 2 µg/mL | 4 µg/mL | 0.5 µg/mL (≈ 1.27 µM) | 0.13 µg/mL (≈ 0.331 µM) | 1 µg/mL (≈ 2.54 µM) | 0.5 µg/mL (≈ 1.27 µM) | 0.5 µg/mL (≈ 1.27 µM) | 1 µg/mL | – | – | – | – | – |
| COc1cccc2c1C(=O)c1c(O)c3c(c(O)c1C2=O)C[C@@](O)(C(=O)CO)C[C@@H]3O[C@H]1C[C@H](N)[C@H](O)[C@H](C)O1 [DOXORUBICIN] | – | – | – | – | – | – | – | – | – | – | – | – | – | – | 2640 nM | 640 nM | < 125 nM | – | – |
| CC(=O)O[C@H]1C(=O)[C@@]2(C)[C@H]([C@H](OC(=O)c3ccccc3)[C@]3(O)C[C@H](OC(=O)[C@H](O)[C@@H](NC(=O)c4ccccc4)c4ccccc4)C(C)=C1C3(C)C)[C@]1(OC(C)=O)CO[C@@H]1C[C@@H]2O [PACLITAXEL] | – | – | – | – | – | – | – | – | – | – | – | – | – | – | – | – | – | < 1 nM | < 25 nM |
| COc1ccc([Se]C(Cn2ccnc2)c2ccc(Cl)cc2Cl)cc1 (configuration not stated) | 8 µg/mL | 0.03 µg/mL (≈ 0.0704 µM) | 0.25 µg/mL (≈ 0.587 µM) | 8 | 8 µg/mL | 16 µg/mL (≈ 37.5 µM) | 8 µg/mL | 2 µg/mL | 0.25 µg/mL (≈ 0.587 µM) | 0.02 µg/mL (≈ 0.0469 µM) | 0.5 µg/mL (≈ 1.17 µM) | 0.13 µg/mL (≈ 0.305 µM) | 0.25 µg/mL (≈ 0.587 µM) | 2 µg/mL | – | – | – | – | – |
| Cc1cc(C)cc([Se]C(Cn2ccnc2)c2ccc(F)cc2F)c1 (configuration not stated) | 4 µg/mL | 0.03 µg/mL (≈ 0.0767 µM) | 0.13 µg/mL (≈ 0.332 µM) | 8 | 8 µg/mL | 8 µg/mL (≈ 20.4 µM) | 2 µg/mL | 4 µg/mL | 0.5 µg/mL (≈ 1.28 µM) | 0.13 µg/mL (≈ 0.332 µM) | 0.5 µg/mL (≈ 1.28 µM) | 0.13 µg/mL (≈ 0.332 µM) | 0.5 µg/mL (≈ 1.28 µM) | 8 µg/mL | – | – | – | – | – |
| CCc1ccc([Se]C(Cn2ccnc2)c2ccc(F)cc2F)cc1 (configuration not stated) | 2 µg/mL | 0.13 µg/mL (≈ 0.332 µM) | 0.13 µg/mL (≈ 0.332 µM) | 8 | 8 µg/mL | 8 µg/mL (≈ 20.4 µM) | 1 µg/mL | 4 µg/mL | 0.5 µg/mL (≈ 1.28 µM) | 0.13 µg/mL (≈ 0.332 µM) | 0.5 µg/mL (≈ 1.28 µM) | 0.13 µg/mL (≈ 0.332 µM) | 0.03 µg/mL (≈ 0.0767 µM) | 1 µg/mL | – | – | – | – | – |
| Clc1ccc(C(Cn2ccnc2)[Se]c2ccccc2)c(Cl)c1 (configuration not stated) | 2 µg/mL | 0.13 µg/mL (≈ 0.328 µM) | 0.25 µg/mL (≈ 0.631 µM) | 8 | 2 µg/mL | 8 µg/mL (≈ 20.2 µM) | 1 µg/mL | 1 µg/mL | 1 µg/mL (≈ 2.52 µM) | 0.13 µg/mL (≈ 0.328 µM) | 0.25 µg/mL (≈ 0.631 µM) | 0.25 µg/mL (≈ 0.631 µM) | 0.13 µg/mL (≈ 0.328 µM) | 1 µg/mL | – | – | – | – | – |
| CCc1ccc([Se]C(Cn2ccnc2)c2ccc(Cl)cc2Cl)cc1 (configuration not stated) | 4 µg/mL | 0.03 µg/mL (≈ 0.0707 µM) | 1 µg/mL (≈ 2.36 µM) | 8 | 15 µg/mL | 4 µg/mL (≈ 9.43 µM) | 8 µg/mL | 8 µg/mL | 0.13 µg/mL (≈ 0.306 µM) | 0.06 µg/mL (≈ 0.141 µM) | 0.5 µg/mL (≈ 1.18 µM) | 0.5 µg/mL (≈ 1.18 µM) | 0.5 µg/mL (≈ 1.18 µM) | 4 µg/mL | – | – | – | – | – |
| CCc1ccccc1[Se]C(Cn1ccnc1)c1ccc(Cl)cc1Cl (configuration not stated) | 4 µg/mL | 0.03 µg/mL (≈ 0.0707 µM) | 0.13 µg/mL (≈ 0.306 µM) | 8 | 1 µg/mL | 8 µg/mL (≈ 18.9 µM) | 2 µg/mL | 4 µg/mL | 0.13 µg/mL (≈ 0.306 µM) | 0.5 µg/mL (≈ 1.18 µM) | 0.5 µg/mL (≈ 1.18 µM) | 0.25 µg/mL (≈ 0.589 µM) | 0.5 µg/mL (≈ 1.18 µM) | 16 µg/mL | – | – | – | – | – |
| Cc1cc(C)cc([Se]C(Cn2ccnc2)c2ccc(Cl)cc2Cl)c1 (configuration not stated) | 4 µg/mL | 0.06 µg/mL (≈ 0.141 µM) | 0.5 µg/mL (≈ 1.18 µM) | 8 | 16 µg/mL | 8 µg/mL (≈ 18.9 µM) | 8 µg/mL | 16 µg/mL | 0.25 µg/mL (≈ 0.589 µM) | 0.5 µg/mL (≈ 1.18 µM) | 0.5 µg/mL (≈ 1.18 µM) | 0.5 µg/mL (≈ 1.18 µM) | 0.5 µg/mL (≈ 1.18 µM) | 16 µg/mL | – | – | – | – | – |
